According to patent US4871765A, “Amine derivative and its salt and anti-ulcer agent containing the same” (Toyama Chemical Co., Ltd., priority 1987, dated 1989):

Assays:
Acute toxicity = format: in vivo; conditions: mouse, in vivo; ICR mice (male, 27-30 g), intravenous, up and down method
Description: (§1) A test compound was administered to ICR mice (male, 27-30 g) intravenously,and the LD50 value was calculated by the up and down method.

gastric acid secretion = test: Inhibitory activity on gastric acid secretion (pylorus ligation method); format: in vivo, Wistar rats (male); conditions: intraduodenal, histamine 25 mg/kg s.c., 3 hours
Description: [I] Inhibitory activity on gastric acid secretion (pylorus ligation method)
This activity was measured in accordance with the method by H. Shay et al. described in Gastroenterology, 5, 43 (1945). Groups of six or seven Wistar rats (male, 190-230 g) were fasted for 24 hours, following which the pylorus of each rat was ligated under ether anesthesia. The test compounds were administered intraduodenally after ligation. Thereafter, the rats were subjected to celiorrhaphy and immediately 25 mg/kg of histamine was administered to them subcutaneously at the dorsal. After 3 hours, the cardia of stomach was ligated, and then the stomach was removed. The gastric juice was collected by centrifugation and the total amount was quantitated. 1 ml of the gastric juice was taken and titrated with a 0.1 N aqueous sodium hydroxide solution to an end point of pH 7.0. In administering the test compound, the compound was dissolved in dimethyl sulfoxide (DMSO) and then diluted with distilled water to obtain a 0.25% aqueous DMSO solution containing the test compound. A 0.25% aqueous DMSO solution containing no test compound was administered to control group.
The inhibition rate of gastric acid secretion was calculated from the following equation: [formula]

ICR mice = test: Acute toxicity; format: in vivo; conditions: ICR mice (male, 27-30 g), intravenous, up and down method
Description: as §1

CN(C)Cc1ccc(CSCCNC(=NS(C)(=O)=O)NCC(O)c2ccc(O)cc2)o1 (stereo not shown) [Test compound 5, reference compound]
LD50 (Acute toxicity): 90.7 mg/kg

CNCc1ccc(CSCCNC(=NS(C)(=O)=O)NCC(O)c2ccc(O)cc2)o1 (stereo not shown) [compound 1]
LD50 (Acute toxicity): 100 mg/kg
inhibition at 0.625 mg/kg (gastric acid secretion; Rattus norvegicus, dose 0.625 mg/kg, **p < 0.01, read-out: Inhibition rate): 67.6%
inhibition at 1.25 mg/kg (gastric acid secretion; Rattus norvegicus, dose 1.25 mg/kg, **p < 0.01, *p < 0.05, read-out: Inhibition rate): 82.2%

N-[2-(4-carbamoylphenyl)-2-hydroxyethyl]-N'-methanesulfonyl-N"-[2-[[5-(methylamino)methyl-2furyl]-methylthio]ethyl]guanidine [Test compound 2]
LD50 (ICR mice): 129.8 mg/kg

N-[2-hydroxy-2-(4-hydroxyphenyl)ethyl]-N'-methanesulfonyl-N"-[2-[[5-(methylamino)methyl-2-furyl]methylthio]ethyl]guanidine [Example 1 (1)]
Inhibition rate (gastric acid secretion; dose 1.25 mg/kg, **p < 0.01, *p < 0.05, listed as 2): 51.3%
Inhibition rate (gastric acid secretion; dose 1.25 mg/kg, **p < 0.01, *p < 0.05, listed as 3): 54.2%
Inhibition rate (gastric acid secretion; dose 1.25 mg/kg, **p < 0.01, *p < 0.05, listed as 4): 30.6%

N-[2-hydroxy-2-[3-(methanesulfonylamino)phenyl]ethyl]-N'-methanesulfonyl-N"-[2-[[5-(methylamino)-methyl-2-furyl]methylthio]ethyl]guanidine [Test compound 3]
LD50 (ICR mice): 151.0 mg/kg

S(-)-N-[2-hydroxy-2-(4-hydroxyphenyl)ethyl]-N'-methanesulfonyl-N"-[2-[[5-(methylamino)methyl-2-furyl]methylthio]ethyl]guanidine [Example 5]
Inhibition rate (gastric acid secretion; dose 5.0 mg/kg): 32.7%
